Measurements taken from PubChem BioAssay AID2060626 (Molecular Pharmacology Branch, DTP, NCI, 2025).

System: 168753-222-R-J1-PDC complex spheroid viability
Assay: Anticancer human tumor 168753-222-R-J1-PDC patient-derived bladder carcinoma cell line growth inhibition [CLK]
Conditions: for IC50: curve of first compound; for viability, T/C: stronger effect = lower value
Summary of the method: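 Multi-cell-type spheroids combined patient-derived tumor cells with HUVEC endothelial cells and human mesenchymal stem cells. Paired agents were dosed in half-log steps down from about clinical Cmax, or from 10 microM where Cmax was unknown.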

[1] = second compound 0.0316 µM, first compound 0.0316 µM
[2] = second compound 0.0316 µM, first compound 0.1 µM
[3] = second compound 0.1 µM, first compound 0.0316 µM
[4] = second compound 0.1 µM, first compound 0.1 µM
[5] = second compound 0.316 µM, first compound 0.0316 µM
[6] = second compound 0.316 µM, first compound 0.1 µM
[7] = second compound 1 µM, first compound 0.0316 µM
[8] = second compound 1 µM, first compound 0.1 µM
[9] = second compound 3.16 µM, first compound 0.0316 µM
[10] = second compound 3.16 µM, first compound 0.1 µM
[11] = second compound 10 µM, first compound 0.0316 µM
[12] = second compound 10 µM, first compound 0.1 µM
[13] = second compound 0.0316 µM, first compound 0.316 µM
[14] = second compound 0.0316 µM, first compound 1 µM
[15] = second compound 0.0316 µM, first compound 3.16 µM
[16] = second compound 0.0316 µM, first compound 10 µM
[17] = second compound 0.1 µM, first compound 0.316 µM
[18] = second compound 0.1 µM, first compound 1 µM
[19] = second compound 0.1 µM, first compound 3.16 µM
[20] = second compound 0.1 µM, first compound 10 µM
[21] = second compound 0.316 µM, first compound 0.316 µM
[22] = second compound 0.316 µM, first compound 1 µM
[23] = second compound 0.316 µM, first compound 3.16 µM
[24] = second compound 0.316 µM, first compound 10 µM
[25] = second compound 1 µM, first compound 0.316 µM
[26] = second compound 1 µM, first compound 1 µM
[27] = second compound 1 µM, first compound 3.16 µM
[28] = second compound 1 µM, first compound 10 µM
[29] = second compound 3.16 µM, first compound 0.316 µM
[30] = second compound 3.16 µM, first compound 1 µM
[31] = second compound 3.16 µM, first compound 3.16 µM
[32] = second compound 3.16 µM, first compound 10 µM
[33] = second compound 10 µM, first compound 0.316 µM
[34] = second compound 10 µM, first compound 1 µM
[35] = second compound 10 µM, first compound 3.16 µM
[36] = second compound 10 µM, first compound 10 µM
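Further: viability measured after seven days of drug exposure.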
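Wherever viability, T/C is given: luminescence signal used as surrogate for viable cell amount; 100% = DMSO vehicle control wells.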

How did the IC50 (second compound 0.0316 µM) turn out when Cn1ncnc1[C@H]1c2n[nH]c(=O)c3cc(F)cc(c23)N[C@@H]1c1ccc(F)cc1 + CN1CCN(c2cc(C(=O)Nc3cc4cc(-c5cnn(C)c5)ccc4cn3)ccn2)CC1 was run?
The IC50 was > 100 nM.

And the IC50 (second compound 0.1 µM)?
The IC50 was 4.08 nM.

What about the IC50 (second compound 0.316 µM) of the same compound?
The IC50 was < 0.316 nM.

And the IC50 (second compound 1 µM)?
Its IC50 is < 0.316 nM.

And the IC50 (second compound 3.16 µM)?
The IC50 was < 0.316 nM.

What about the IC50 (second compound 10 µM) of the same compound?
The IC50 was < 0.316 nM.

What about the viability, T/C (second compound 0.0316 µM, first compound 0.000316 µM) of the same compound?
Its viability, T/C is 90.2%.

What about the viability, T/C (second compound 0.0316 µM, first compound 0.001 µM) of the same compound?
The viability, T/C was 95.1%.

And the viability, T/C (second compound 0.0316 µM, first compound 0.00316 µM)?
The viability, T/C was 70.5%.

What about the viability, T/C (second compound 0.0316 µM, first compound 0.01 µM) of the same compound?
The viability, T/C was 101%.

What about the viability, T/C [1] of the same compound?
The viability, T/C was 97.9%.

And the viability, T/C [2]?
The viability, T/C was 58.2%.

What about the viability, T/C (second compound 0.1 µM, first compound 0.000316 µM) of the same compound?
The viability, T/C was 58.7%.

What about the viability, T/C (second compound 0.1 µM, first compound 0.001 µM) of the same compound?
Its viability, T/C is 72.5%.

And the viability, T/C (second compound 0.1 µM, first compound 0.00316 µM)?
Its viability, T/C is 54.7%.

And the viability, T/C (second compound 0.1 µM, first compound 0.01 µM)?
The viability, T/C was 18.7%.

And the viability, T/C [3]?
The viability, T/C was 25.8%.

What about the viability, T/C [4] of the same compound?
The viability, T/C was 56%.

What about the viability, T/C (second compound 0.316 µM, first compound 0.000316 µM) of the same compound?
The viability, T/C was 9.67%.

What about the viability, T/C (second compound 0.316 µM, first compound 0.001 µM) of the same compound?
The viability, T/C was 9.41%.

And the viability, T/C (second compound 0.316 µM, first compound 0.00316 µM)?
The viability, T/C was 8.77%.

What about the viability, T/C (second compound 0.316 µM, first compound 0.01 µM) of the same compound?
The viability, T/C was 7.96%.

What about the viability, T/C [5] of the same compound?
The viability, T/C was 8.57%.

And the viability, T/C [6]?
The viability, T/C was 8.4%.

And the viability, T/C (second compound 1 µM, first compound 0.000316 µM)?
Its viability, T/C is 0.18%.

And the viability, T/C (second compound 1 µM, first compound 0.001 µM)?
The viability, T/C was 0.28%.

What about the viability, T/C (second compound 1 µM, first compound 0.00316 µM) of the same compound?
Its viability, T/C is 0.18%.

And the viability, T/C (second compound 1 µM, first compound 0.01 µM)?
Its viability, T/C is 0.53%.

And the viability, T/C [7]?
Its viability, T/C is 0.24%.

And the viability, T/C [8]?
The viability, T/C was 0.51%.

What about the viability, T/C (second compound 3.16 µM, first compound 0.000316 µM) of the same compound?
The viability, T/C was 1.24%.

What about the viability, T/C (second compound 3.16 µM, first compound 0.001 µM) of the same compound?
Its viability, T/C is 0.1%.

What about the viability, T/C (second compound 3.16 µM, first compound 0.00316 µM) of the same compound?
Its viability, T/C is 0.18%.

What about the viability, T/C (second compound 3.16 µM, first compound 0.01 µM) of the same compound?
The viability, T/C was 0.06%.

What about the viability, T/C [9] of the same compound?
The viability, T/C was 0.26%.

What about the viability, T/C [10] of the same compound?
The viability, T/C was 0.88%.

And the viability, T/C (second compound 10 µM, first compound 0.000316 µM)?
Its viability, T/C is 0.11%.

And the viability, T/C (second compound 10 µM, first compound 0.001 µM)?
The viability, T/C was 0.27%.

And the viability, T/C (second compound 10 µM, first compound 0.00316 µM)?
Its viability, T/C is 0.25%.

And the viability, T/C (second compound 10 µM, first compound 0.01 µM)?
The viability, T/C was 0.1%.

And the viability, T/C [11]?
The viability, T/C was 0.21%.

What about the viability, T/C [12] of the same compound?
Its viability, T/C is 0.19%.

Which results are given for Nc1ccn(C2OC(CO)C(O)C2(F)F)c(=O)n1 (stereo unspecified) + CN1CCN(c2cc(C(=O)Nc3cc4cc(-c5cnn(C)c5)ccc4cn3)ccn2)CC1?
IC50 (second compound 0.0316 µM): 51.8 nM; IC50 (second compound 0.1 µM): 46 nM; IC50 (second compound 0.316 µM): < 31.6 nM; IC50 (second compound 1 µM): < 31.6 nM; IC50 (second compound 3.16 µM): < 31.6 nM; IC50 (second compound 10 µM): < 31.6 nM; viability, T/C [1]: 65.4%; viability, T/C [2]: 28.6%; viability, T/C [13]: 21.3%; viability, T/C [14]: 19%; viability, T/C [15]: 15.6%; viability, T/C [16]: 16%; viability, T/C [3]: 63.6%; viability, T/C [4]: 21.3%; viability, T/C [17]: 15.4%; viability, T/C [18]: 11.6%; viability, T/C [19]: 10.2%; viability, T/C [20]: 11.8%; viability, T/C [5]: 9.99%; viability, T/C [6]: 10.4%; viability, T/C [21]: 9.64%; viability, T/C [22]: 9.63%; viability, T/C [23]: 10.7%; viability, T/C [24]: 12%; viability, T/C [7]: 0.28%; viability, T/C [8]: 0.18%; viability, T/C [25]: 0.16%; viability, T/C [26]: 0.12%; viability, T/C [27]: 0.57%; viability, T/C [28]: 0.21%; viability, T/C [9]: 0.1%; viability, T/C [10]: 0.12%; viability, T/C [29]: 0.43%; viability, T/C [30]: 0.07%; viability, T/C [31]: 0.15%; viability, T/C [32]: 0.1%; viability, T/C [11]: 0.14%; viability, T/C [12]: 0.14%; viability, T/C [33]: 1.05%; viability, T/C [34]: 1.61%; viability, T/C [35]: 0.42%; viability, T/C [36]: 0.9%

For O=c1[nH]cc(F)c(=O)[nH]1 + CN1CCN(c2cc(C(=O)Nc3cc4cc(-c5cnn(C)c5)ccc4cn3)ccn2)CC1, which IC50 (second compound 0.0316 µM) is on record?
Its IC50 is 8930 nM.

And the IC50 (second compound 0.1 µM)?
The IC50 was 160 nM.

What about the IC50 (second compound 0.316 µM) of the same compound?
The IC50 was < 31.6 nM.

And the IC50 (second compound 1 µM)?
The IC50 was < 31.6 nM.

What about the IC50 (second compound 3.16 µM) of the same compound?
Its IC50 is < 31.6 nM.

And the IC50 (second compound 10 µM)?
The IC50 was < 31.6 nM.

And the viability, T/C [1]?
Its viability, T/C is 100%.

And the viability, T/C [2]?
The viability, T/C was 91.9%.

And the viability, T/C [13]?
The viability, T/C was 78.8%.

What about the viability, T/C [14] of the same compound?
Its viability, T/C is 108%.

And the viability, T/C [15]?
The viability, T/C was 95.4%.

What about the viability, T/C [16] of the same compound?
The viability, T/C was 45.2%.

What about the viability, T/C [3] of the same compound?
Its viability, T/C is 72%.

And the viability, T/C [4]?
The viability, T/C was 62.8%.

And the viability, T/C [17]?
The viability, T/C was 15.2%.

What about the viability, T/C [18] of the same compound?
Its viability, T/C is 45.6%.

What about the viability, T/C [19] of the same compound?
The viability, T/C was 36.3%.

And the viability, T/C [20]?
Its viability, T/C is 29%.

And the viability, T/C [5]?
The viability, T/C was 10.5%.

What about the viability, T/C [6] of the same compound?
Its viability, T/C is 10%.

And the viability, T/C [21]?
The viability, T/C was 8.13%.

And the viability, T/C [22]?
Its viability, T/C is 8.71%.

What about the viability, T/C [23] of the same compound?
The viability, T/C was 8.45%.

What about the viability, T/C [24] of the same compound?
The viability, T/C was 8.48%.

And the viability, T/C [7]?
The viability, T/C was 0.22%.

And the viability, T/C [8]?
The viability, T/C was 0.19%.

And the viability, T/C [25]?
Its viability, T/C is 0.15%.

And the viability, T/C [26]?
The viability, T/C was 0.18%.

And the viability, T/C [27]?
Its viability, T/C is 0.33%.

What about the viability, T/C [28] of the same compound?
Its viability, T/C is 0.58%.

And the viability, T/C [9]?
Its viability, T/C is 0.97%.

What about the viability, T/C [10] of the same compound?
The viability, T/C was 0.11%.

And the viability, T/C [29]?
The viability, T/C was 0.09%.

And the viability, T/C [30]?
Its viability, T/C is 0.19%.

And the viability, T/C [31]?
Its viability, T/C is 1.18%.

And the viability, T/C [32]?
The viability, T/C was 1.57%.

And the viability, T/C [11]?
Its viability, T/C is 0.09%.

What about the viability, T/C [12] of the same compound?
The viability, T/C was 0.24%.

And the viability, T/C [33]?
Its viability, T/C is 0.24%.

And the viability, T/C [34]?
The viability, T/C was 0.82%.

What about the viability, T/C [35] of the same compound?
The viability, T/C was 1.41%.

What about the viability, T/C [36] of the same compound?
The viability, T/C was 1.15%.
